Reference: ChEMBL document CHEMBL1201862, “PubChem BioAssay data set” (2004)
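Cultured in 96-well plates, cells were exposed to test compound for 48 hours across five concentrations. GI50 is the concentration that inhibits growth by half.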 Activity calls are given as the source filed them. Rule as the data show it: active = GI50 up to about 1.1 µM and inactive = higher.

Legend:
Assay in all cases: inhibition of tumour cell growth, NCI panel, 48 h
COLO 205 = tested on: COLO 205
EKVX = tested on: EKVX
HCT-116 = tested on: HCT-116
HCT-15 = tested on: HCT-15
HOP-92 = tested on: HOP-92
KM12 = tested on: KM12
LOX IMVI = tested on: LOX IMVI
M14 = tested on: M14
NCI-H460 = tested on: NCI-H460
OVCAR-5 = tested on: OVCAR-5
SF-268 = tested on: SF-268
SF-295 = tested on: SF-295
SK-MEL-28 = tested on: SK-MEL-28
SNB-19 = tested on: SNB-19
SNB-75 = tested on: SNB-75
TK-10 = tested on: TK-10
Hs-578T = tested on: Hs-578T
MDA-MB-231 = tested on: MDA-MB-231
PC-3 = tested on: PC-3
DU-145 = tested on: DU-145

| Compound | GI50 (COLO 205) | GI50 (EKVX) | GI50 (HCT-116) | GI50 (HCT-15) [µM] | GI50 (HOP-92) | GI50 (KM12) | GI50 (LOX IMVI) | GI50 (M14) | GI50 (NCI-H460) | GI50 (OVCAR-5) | GI50 (SF-268) | GI50 (SF-295) | GI50 (SK-MEL-28) | GI50 (SNB-19) | GI50 (SNB-75) | GI50 (TK-10) | GI50 (Hs-578T) | GI50 (MDA-MB-231) | GI50 (PC-3) | GI50 (DU-145) |
| --- | --- | --- | --- | --- | --- | --- | --- | --- | --- | --- | --- | --- | --- | --- | --- | --- | --- | --- | --- | --- |
| N#CC1CC(c2ccccc2)Nc2cc(Cl)ccc2N1 (configuration not stated) | 7.11 µM (inactive) | > 79.6 µM (inactive) | 19.3 µM (inactive) | 13.8 | 26.7 µM (inactive) | 34.8 µM (inactive) | 33.1 µM (inactive) | 24.3 µM (inactive) | 35.4 µM (inactive) | > 100 µM (inactive) | 45.2 µM (inactive) | 40.9 µM (inactive) | > 93.8 µM (inactive) | > 50.5 µM (inactive) | 36.5 µM (inactive) | > 100 µM (inactive) | – | – | – | – |
| CCOP(=O)(OCC)OC(C#N)c1ccc(-c2ccccc2)cc1 (configuration not stated) | 18.2 µM (inactive) | 49 µM (inactive) | 15.2 µM (inactive) | 18 | 14.4 µM (inactive) | 18.2 µM (inactive) | 13.7 µM (inactive) | 18.4 µM (inactive) | 20.5 µM (inactive) | 54.1 µM (inactive) | 18.2 µM (inactive) | 70.6 µM (inactive) | 31.4 µM (inactive) | 73.1 µM (inactive) | 27.7 µM (inactive) | 30.5 µM (inactive) | – | – | – | – |
| N#Cc1cc([N+](=O)[O-])ccc1NC(=O)C(=O)C(C(=O)/C=C/c1ccccc1)C1OC(=O)c2ccccc21 (configuration not stated) | > 100 µM (inactive) | > 100 µM (inactive) | > 100 µM (inactive) | > 100 | > 100 µM (inactive) | > 100 µM (inactive) | > 100 µM (inactive) | > 100 µM (inactive) | > 100 µM (inactive) | > 100 µM (inactive) | > 100 µM (inactive) | > 100 µM (inactive) | > 100 µM (inactive) | > 100 µM (inactive) | > 100 µM (inactive) | > 100 µM (inactive) | – | – | – | – |
| CC1(C)COC(c2cccnc2/C=N/O)=N1 | > 100 µM (inactive) | > 100 µM (inactive) | > 100 µM (inactive) | > 100 | > 100 µM (inactive) | > 100 µM (inactive) | > 100 µM (inactive) | > 100 µM (inactive) | > 100 µM (inactive) | > 100 µM (inactive) | > 100 µM (inactive) | > 100 µM (inactive) | > 100 µM (inactive) | > 100 µM (inactive) | > 100 µM (inactive) | > 100 µM (inactive) | – | – | – | – |
| CC(C)(CO)N1CCN(C(S)=Nc2ccccc2)CC1 | > 100 µM (inactive) | > 100 µM (inactive) | > 100 µM (inactive) | > 100 | > 100 µM (inactive) | > 100 µM (inactive) | > 100 µM (inactive) | > 100 µM (inactive) | > 100 µM (inactive) | > 100 µM (inactive) | > 100 µM (inactive) | > 100 µM (inactive) | > 100 µM (inactive) | > 100 µM (inactive) | > 100 µM (inactive) | > 100 µM (inactive) | > 100 µM (inactive) | > 100 µM (inactive) | > 100 µM (inactive) | – |
| CC1=CC2(O)OC3(CC2=C(C)C)C(C)CCC13 (configuration not stated) | > 100 µM (inactive) | > 100 µM (inactive) | > 100 µM (inactive) | > 100 | > 100 µM (inactive) | > 100 µM (inactive) | > 100 µM (inactive) | > 100 µM (inactive) | – | > 100 µM (inactive) | > 100 µM (inactive) | > 100 µM (inactive) | – | > 100 µM (inactive) | 58.5 µM (inactive) | > 100 µM (inactive) | > 100 µM (inactive) | > 100 µM (inactive) | – | > 100 µM (inactive) |
| CCC1C(c2cccc(OC)c2O)c2cc3c(cc2OC1N1CCCC1)OCO3 (configuration not stated) | > 10 µM (inactive) | 22.8 µM (inactive) | 8.47 µM (inactive) | 12.2 | – | 12 µM (inactive) | 23.3 µM (inactive) | 6.43 µM (inactive) | 20.2 µM (inactive) | 20.1 µM (inactive) | 16.7 µM (inactive) | 16.8 µM (inactive) | 16.3 µM (inactive) | 14.6 µM (inactive) | 17.7 µM (inactive) | 16.4 µM (inactive) | 3.75 µM (inactive) | – | 16.6 µM (inactive) | > 10 µM (inactive) |
| OCCSCCCSCCO | > 100 µM (inactive) | > 100 µM (inactive) | > 100 µM (inactive) | > 100 | 27.1 µM (inactive) | > 100 µM (inactive) | > 100 µM (inactive) | > 100 µM (inactive) | 34.8 µM (inactive) | > 100 µM (inactive) | > 100 µM (inactive) | > 100 µM (inactive) | > 100 µM (inactive) | > 100 µM (inactive) | > 100 µM (inactive) | > 100 µM (inactive) | – | > 100 µM (inactive) | > 100 µM (inactive) | > 100 µM (inactive) |
